Experimental data as given in US10336732B2, “1-heterocyclyl isochromanyl compounds and analogs for treating CNS disorders” (Sunovion Pharmaceuticals Inc., priority 2015, dated 2019).

Tested on: mice
Assay: Neuropharmacological assay (SmartCube), behavioral signature of compound-treated mice
Assay type: in vivo
Conditions: i.p. 15 min before behavioral test, most efficacious dose(s) of 3 doses
Outline: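 Mice received compound i.p. in NMP/PEG/propylene glycol vehicle at 3 doses, 15 min before testing. Video-captured behavior was algorithmically compared with a reference-drug signature database.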

| SMILES | AD: ADHD (probability that behavioral signature matches class) | AG: analgesic (probability that behavioral signature matches class) | AX: anxiolytic (probability that behavioral signature matches class) | CE: cognitive enhancer (probability that behavioral signature matches class) | DP: anti-depressant (probability that behavioral signature matches class) | HA: hallucinogen (probability that behavioral signature matches class) | MS: mood stabilizer (probability that behavioral signature matches class) | PS: anti-psychotic (probability that behavioral signature matches class) | SD: sedative hypnotic (probability that behavioral signature matches class) | UN: uncharacterized CNS activity (probability that behavioral signature matches class) |
| --- | --- | --- | --- | --- | --- | --- | --- | --- | --- | --- |
| Fc1ccc2c(c1)CCCO[C@H]2[C@H]1CCCN1 [Compound I-113, (R)-2-((R)-7-fluoro-1,3,4,5-tetrahydrobenzo[c]oxepin-1-yl)pyrrolidine] | + (LOQ ≤ + <5%) | ++ (5% ≤ ++ <25%) | ++ (5% ≤ ++ <25%) | ++ (5% ≤ ++ <25%) | +++ (25% ≤ +++ <50%) | + (LOQ ≤ + <5%) | + (LOQ ≤ + <5%) | ++ (5% ≤ ++ <25%) | ++ (5% ≤ ++ <25%) | + (LOQ ≤ + <5%) |
| FC1(F)CO[C@H]([C@@H]2CCCN2)c2ccccc21 [Compound I-139, (S)-2-((S)-4,4-difluoroisochroman-1-yl)pyrrolidine] | + (LOQ ≤ + <5%) | + (LOQ ≤ + <5%) | ++ (5% ≤ ++ <25%) | ++ (5% ≤ ++ <25%) | ++ (5% ≤ ++ <25%) | + (LOQ ≤ + <5%) | + (LOQ ≤ + <5%) | +++ (25% ≤ +++ <50%) | + (LOQ ≤ + <5%) | + (LOQ ≤ + <5%) |
| Clc1ccc2c(c1)[C@H]([C@H]1CCCN1)OCC2 [Compound I-31, (R)-2-((R)-7-chloroisochroman-1-yl)pyrrolidine] | + (LOQ ≤ + <5%) | ++ (5% ≤ ++ <25%) | +++ (25% ≤ +++ <50%) | ++ (5% ≤ ++ <25%) | ++ (5% ≤ ++ <25%) | + (LOQ ≤ + <5%) | ++ (5% ≤ ++ <25%) | +++ (25% ≤ +++ <50%) | ++ (5% ≤ ++ <25%) | + (LOQ ≤ + <5%) |
| c1ccc2c(c1)CCO[C@H]2C1CNC1 [Compound I-115, (S)-3-(isochroman-1-yl)azetidine] | + (LOQ ≤ + <5%) | ++ (5% ≤ ++ <25%) | ++ (5% ≤ ++ <25%) | ++ (5% ≤ ++ <25%) | ++ (5% ≤ ++ <25%) | + (LOQ ≤ + <5%) | + (LOQ ≤ + <5%) | ++ (5% ≤ ++ <25%) | ++ (5% ≤ ++ <25%) | +++ (25% ≤ +++ <50%) |

Same assay, conditions: i.p. 15 min before behavioral test, most efficacious dose(s) of 3 doses

| SMILES | XG: anxiogenic (probability that behavioral signature matches class) |
| --- | --- |
| Fc1ccc2c(c1)CCCO[C@H]2[C@H]1CCCN1 [Compound I-113, (R)-2-((R)-7-fluoro-1,3,4,5-tetrahydrobenzo[c]oxepin-1-yl)pyrrolidine] | + (LOQ ≤ + <5%) |
| FC1(F)CO[C@H]([C@@H]2CCCN2)c2ccccc21 [Compound I-139, (S)-2-((S)-4,4-difluoroisochroman-1-yl)pyrrolidine] | + (LOQ ≤ + <5%) |
| Clc1ccc2c(c1)[C@H]([C@H]1CCCN1)OCC2 [Compound I-31, (R)-2-((R)-7-chloroisochroman-1-yl)pyrrolidine] | + (LOQ ≤ + <5%) |
| c1ccc2c(c1)CCO[C@H]2C1CNC1 [Compound I-115, (S)-3-(isochroman-1-yl)azetidine] | + (LOQ ≤ + <5%) |
